Results on 7 sequences are retold here after paper PMC3098219, “Protective Efficacy of Serially Up-Ranked Subdominant CD8^+ T Cell Epitopes against Virus Challenges” (PLoS Pathogens, 2011).

Test [1] deals with H-2D^d (Mus musculus, UniProt P01900). Nature of the test: T2 peptide binding assay, H-2D^d. Conditions: Figure S2B, 100 µM to 0.01 µM peptide. Here is the method:
(§1) TAP2 ([…])-deficient T2 cell lines stably expressing D^d, K^d, and L^d molecules kindly provided by Dr. Ted Hansen (Washington university, U.S.A.) were used to assess the ability of MHCs to bind each peptide. In brief, 1×10^5 cells were incubated with 0/0.1/1.0/10/100 µM peptides in no-serum RPMI (R-0) for 14 h at 37°C, 5% CO2 in a flat-bottomed 96-well plate. 14 h later, cells were transferred to a round-bottomed 96-well plate and washed with PBS before staining the cells with anti-H-2K^d/H-2D^d-PE or anti-H-2L^d-PE (eBioscience) monoclonal antibodies. Cells were then analyzed on a FACS flow cytometer.
(§2) Supplementary file ppat.1002041.s002.pdf: Figure S2 T2 assays for peptide binding affinity for MHC class I. TAPdeficient T2 cell lines stably transformed with H-2Dd, H-2Kd or H-2Ld complexes were kindly provided by Dr Hansen, Washington University. Peptide-loaded MHC complexes were detected by fluorochrome-conjugated mAb (DB Biosciences) and the cells were analyzed using flow cytometer. […]
(§3) Supplementary Figure S2. […] Peptide-loaded MHC complexes were detected by fluorochrome-conjugated mAb (DB Biosciences) and the cells were analyzed using flow cytometer. […]

Test [2] deals with CD8^+ splenocytes of DNA-immunized mice. Nature of the test: ICS T cell avidity (peptide titration, CD107a/b and IFN-γ). Format: cell-based, BALB/c mice. Conditions: for peak IFN-γ^+CD107a/b^+CD8^+ cell frequencies at 10 µM peptide: Figure 3B, individual determinants when dominant: H in group HIVA, P in HIVAdH, G1 in dHmP, NPP in dHmPG1, 3x 100 µg DNA, 5 h. Here is the method:
(§4) T2 cell lines were incubated with decreasing peptide concentrations ranging from 100 µM to 0.1 µM indicated above the H peptide histogram and the cell surface peptide-loaded MHC complexes were detected by fluorochrome-conjugated mAb (DB Biosciences) and quantified using FACS flow cytometer. B) and C) Groups of 3 BALB/c mice were given 3x immunizations using 100 µg of DNA expressing the index or mutated forms of HIVA at 3 wk intervals and their T cell responses were analyzed 4 wk later. B) Splenocytes were assessed in an ICS assay using peptides indicated above the graphs at concentrations ranging from 10 to 10^−8 µM for 5 h. Cells were gated on IFN-γ-producing CD8^+ T cell populations positive (top) or negative (bottom) for CD107a/b. Note the different y-axis scales on the top and bottom graphs. C) The response kinetics of CD8^+ T cells re-stimulated with 0.1 µM peptides was assessed in an ICS assay in 1-h intervals for a period of 4 h. Data shown are as mean±SD of [CD8^+CD107a/b^+IFN-γ^+ cells at each time point (%)] ÷ [CD8^+CD107a/b^+IFN-γ^+ at 4 h (%)]. One out of two independent experiments is shown.
We also measured avidities of T cell responses recovered through the sequential HIVA epitope up-ranking. First, responsiveness of immune splenocytes following 3 plasmid DNA deliveries was measured in an ICS assay upon re-stimulation with peptide concentrations ranging from 10^−8 to 10 µM for 5 h (Figure 3A).

Test [3] has as its system CD8^+ T cells. Nature of the test: Immunodominance hierarchy of T cell responses to HIVA-derived epitopes. Format: cell-based, BALB/c mice. The note with it: 10 d after immunization.
The target of test [4] is H-2L^d (Mus musculus, UniProt P01897). Kind of test: T2 peptide binding assay, H-2L^d. The note with it: Figure S2B, 100 µM to 0.01 µM peptide. Here is the method:
as §1, §2, §3

In test [5] the test system is splenocytes of DNA-immunized mice. Nature of the test: IFN-γ ELISPOT and ICS with modified HIVA immunogens. It is filed as cell-based, BALB/c mice. Conditions: for recognition of altered peptides by splenocytes (IFN-γ): Figure 2A and B, mice immunized with dHmP and dHmPG1, respectively. The source says:
To further investigate this phenomenon, we serially inactivated CD8^+ T cell epitopes in the order of their immunodominance. To maintain the HIVA protein integrity, epitopes P and G1 were mutated rather than deleted by substituting the anchor amino acid residues required for a strong binding to the H-2K^d molecule (Figure 2A). The resulting double and triple mutants of the HIVA immunogen were called dHmP and dHmPG1, respectively. […] Groups of BALB/c mice were immunized 2x using the modified HIVA immunogens vectored by plasmid DNA and the immune responses were measured in IFN-γ ELISPOT, ICS and in vivo killing assays. […] Second, consistently in all three assays, immune responses directed against subdominant epitopes were serially recovered, however, not to the same extent. […] Because the response to the G2 epitope remained undetectable even in the dHmPG1-immunized mice, overlapping 15/11 peptides across the whole HIVA immunogen were used again to search for another yet unidentified epitope of a higher rank. […] (Figure 2D). […] Thus, step-wise deletion of immunodominant CD8^+ T cell epitopes restores responses to the subdominant epitopes in the hierarchy.
Figure 2 Serial up-ranking of epitopes. A) Groups of 4 BALB/c mice were immunized 2x i.m. with 100 µg of DNA at a 2-wk interval. Two wk later, splenocytes were assessed in an ELISPOT assay for production of IFN-γ upon re-stimulation with peptides indicated above. Shown are schematic diagrams of HIVA and the three modified immunogens with representative examples of the ELISPOT well images. B) Mice were immunized as in A and 4 wk later, splenocytes were assessed in an ICS assay to measure CD8^+ T cells secreting IFN-γ upon re-stimulation with peptide indicated in the top left corner. Group means±SD are shown. C) Identical groups of mice were assessed for cytolytic activity in an in vivo lysis of syngeneic peptide-pulsed cells transferred into naïve or vaccinated animals. Representative examples of dot plots are shown (top) and the peptide-specific lyses are expressed as a group mean±SD (bottom). D) Groups of 3 BALB/c mice were immunized 3x with 100 µg of DNA indicated above the dot plot in 2-wk intervals and the designated NPP peptide-specific responses were assessed by IFN-γ ICS 2 wk later. The FACS plots are representative examples with IFN-γ producing cells as a percentage of CD8^+ splenocytes shown in the top right panels. All experiments were repeated at least once. TEXT PRINTED IN THE PICTURE: (D) HIVA: 0.05 | (D) HIVAdH: 0.09 | (D) dHmP: 0.08 | (D) dHmPG1: 0.57 DOUBTS OF THE COPYIST ABOUT THIS PICTURE: Panel D: the numbers in the top right quadrants of the CD8 / IFN-γ dot plots are printed without a measure or unit, so they are copied as bare numbers.
The ELISPOT assay was performed using the Mouse IFN-γ ELISpot kit (Mabtech) according to the manufacturer's instructions. Spots were visualised using sequential applications of a biotin-conjugated secondary anti-IFN-γ mAb (R4-6A2, Rat IgG1), an alkaline phosphatase and a chromogenic substrate (Bio-Rad) and counted using the AID ELISpot Reader System (Autoimmun Diagnostika).

Test [6] concerns CD8^+ splenocytes of immunized mice. Format: cell-based, BALB/c mice. The note with it: HIVAdH vs HIVA immunization; ex vivo ICS, Figure 1D.
Test [7] relates to H-2D^d, H-2K^d or H-2L^d complexes. Kind of test: T2 peptide binding assay, respective MHC class I complexes. Conditions: Figure 3A; TAP-deficient T2 cells, 100 µM to 0.1 µM peptide, 14 h at 37°C, FACS. Here is the method: as §4, with “Figure 3 Contributing mechanisms of immunodominance. […] T2” for “T2”
as §1

The subject of test [8] is syngeneic peptide-pulsed cells. Nature of the test: in vivo killing assay (lysis of syngeneic peptide-pulsed cells). More on the design: species or system BALB/c mice. The note with it: HIVAdH vaccinated relative to HIVA vaccination; Figure 1F.
Test [9] concerns syngeneic peptide-pulsed cells. Nature of the test: In vivo lysis assay, epitope hierarchy with boost vector and time. More on the design: species or system BALB/c mice. The note with it: for epitope hierarchy at 100 d: Figure 5, DNA-DNA (pTH.HIVA) regimen, 100 d after last vaccination.
Test [10] addresses T1, H-2K^d (Mus musculus, UniProt P01902). Nature of the test: T2 peptide binding assay, H-2K^d. Conditions: Figure S2A, 100 µM to 0.01 µM peptide. Here is the method: as §1, §2, §3
Test [11] has as its target T1, H-2K^d. The note with it: ref [34]; cited from earlier work. An excerpt:
(§5) Our research interests lie in development of the T cell component of HIV-1 vaccines stimulating protective CD8^+ T cell responses. The first-generation T cell immunogen, designated HIVA (Figure 1A), has served as an extremely useful tool for iterative improving of CD8^+ T cell induction by experimental vaccines in mice, non-human primates and humans [reviewed in [30]]. To increase the power of T cell analysis and study the role of subdominant determinants, H-2^d class I-restricted epitopes contained in the HIVA immunogen were mapped in detail. Thus, the most immunodominant epitope of ...

The test system of test [12] is H-2D^d and H-2L^d molecules. Conditions: ref [31], [33]; cited from earlier work.
Excerpt: as §5

T1 sequence (P01902 whole entry, looked up): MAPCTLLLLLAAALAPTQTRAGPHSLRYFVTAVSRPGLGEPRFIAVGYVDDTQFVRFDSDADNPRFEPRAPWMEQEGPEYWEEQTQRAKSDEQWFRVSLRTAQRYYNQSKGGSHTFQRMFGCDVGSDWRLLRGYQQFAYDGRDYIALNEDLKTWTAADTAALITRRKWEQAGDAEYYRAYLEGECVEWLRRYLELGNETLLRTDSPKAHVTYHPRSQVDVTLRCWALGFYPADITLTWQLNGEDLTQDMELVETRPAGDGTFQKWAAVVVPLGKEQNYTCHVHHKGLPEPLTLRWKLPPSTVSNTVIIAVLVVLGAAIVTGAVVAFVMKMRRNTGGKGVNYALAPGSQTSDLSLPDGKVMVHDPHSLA
Sequence of H-2L^d (P01897 whole entry, looked up): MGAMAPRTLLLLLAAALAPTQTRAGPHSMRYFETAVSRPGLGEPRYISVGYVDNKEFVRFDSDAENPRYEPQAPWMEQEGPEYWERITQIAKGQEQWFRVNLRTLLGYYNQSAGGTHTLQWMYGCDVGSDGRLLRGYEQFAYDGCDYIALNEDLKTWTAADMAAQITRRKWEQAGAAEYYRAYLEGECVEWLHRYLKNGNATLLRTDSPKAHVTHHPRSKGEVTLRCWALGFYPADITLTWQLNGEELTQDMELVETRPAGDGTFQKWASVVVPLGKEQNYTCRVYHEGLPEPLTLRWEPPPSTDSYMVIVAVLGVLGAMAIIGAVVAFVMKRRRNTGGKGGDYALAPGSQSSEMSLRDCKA
Sequence of H-2D^d (P01900 whole entry, looked up): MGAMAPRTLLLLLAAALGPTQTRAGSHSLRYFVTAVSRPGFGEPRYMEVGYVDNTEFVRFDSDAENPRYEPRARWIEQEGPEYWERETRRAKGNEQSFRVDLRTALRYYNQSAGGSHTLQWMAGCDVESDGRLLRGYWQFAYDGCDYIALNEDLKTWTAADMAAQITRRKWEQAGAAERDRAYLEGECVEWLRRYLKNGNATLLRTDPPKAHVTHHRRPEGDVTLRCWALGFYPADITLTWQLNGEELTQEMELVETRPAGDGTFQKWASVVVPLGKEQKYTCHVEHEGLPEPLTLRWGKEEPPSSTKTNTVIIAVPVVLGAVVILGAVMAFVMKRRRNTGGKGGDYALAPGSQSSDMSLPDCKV

With NPPIPVGDI, the “restriction / binding to H-2D^d” value in test [1] is “restricted by H-2D^d and H-2L^d”. For the same sequence, the “peak IFN-γ^+CD107a/b^+CD8^+ cell frequencies at 10 µM peptide” value in test [2] is 0.8 % of total CD8^+ splenocytes. Also, the “hierarchy of T cell responses against HIVA-derived epitopes” value (“hierarchy of T cell responses” below) in test [3] is “H>P>>G1>NPP>>G2”. In addition, the “restriction / binding to H-2L^d” value in test [4] is “restricted by H-2D^d and H-2L^d”.

In the case of NPPIPVGDIYKRWIILGLNK, the “T cell response to peptide in epitope search” value in [5] (dHmPG1-immunized mice, overlapping 15/11 peptides across HIVA) is on record as “a response was detected”.

As for IFQSSMTKI [P], the “frequencies of IFN-γ-producing CD8^+ cells” value in test [6] is reported as “noticeably, though not significantly increased”. Besides, the “peak IFN-γ^+CD107a/b^+CD8^+ cell frequencies at 10 µM peptide” value in [2] is 3.3 % of total CD8^+ splenocytes. In addition, in [3], the “hierarchy of T cell responses” value was “H>P>>G1>NPP>>G2”. The “peptide binding affinities for respective MHC class I” value (from here on “peptide binding affinities”) in [7] is “directly correlated with the immunodominance hierarchy”. Besides, in test [8], the “in vivo lysis of peptide-pulsed targets” value is reported as “increased in vivo lysis”. Besides, the “epitope hierarchy at 100 d” value in test [9] is given as “replaced by T cells specific for peptide P”.

Take AMEFLKDTA [altered G1 peptide]: in test [10], the “binding to H-2K^d” value was “unable to bind”. For the same sequence, the “recognition of altered peptides by splenocytes (IFN-γ)” value in [5] is “unable to recognize”.

In the case of IFGSSMTKA [altered P peptide], in test [10], the “binding to H-2K^d” value was “unable to bind”. Also, the “recognition of altered peptides by splenocytes (IFN-γ)” value in test [5] is recorded as “unable to recognize”.

Take TTSTLQEQI [G2, Gag residues 239–247]: the “frequencies of IFN-γ-producing CD8^+ cells” value in [6] is listed as “undetectable”. The “hierarchy of T cell responses” value in test [3] is listed as “H>P>>G1>NPP>>G2”. Moreover, the “peptide binding affinities” value in test [7] is reported as “directly correlated with the immunodominance hierarchy”. In addition, in [11], the “MHC class I restriction (H-2K^d)” value is reported as “H-2K^d-restricted”. The “restoration of G2-specific response” value in test [5] (immunization with dHmPG1 vaccine) is given as “failed to restore the G2-specific response”.

In the case of RGPGRAFVTI [H], the “IFN-γ response in non-degranulating IFN-γ^+CD107a/b^−CD8^+ cells” value in test [2] (Figure 3B bottom, following HIVA vaccination, low, but significant) is on record as 0.65 % of total CD8^+ cells. Also, the “peak IFN-γ^+CD107a/b^+CD8^+ cell frequencies at 10 µM peptide” value in test [2] is reported as 3.2 % of total CD8^+ splenocytes. In addition, in test [3], the “hierarchy of T cell responses” value was “H>P>>G1>NPP>>G2”. Further, the “peptide binding affinities” value in test [7] was “directly correlated with the immunodominance hierarchy”. Besides, the “epitope hierarchy at 100 d” value in test [9] was “no longer dominated the anti-HIVA response”. For the same sequence, the “epitope hierarchy at 28 d” value in test [9] (double or triple DNA prime-boost regimen, 28 d post vaccination) is “the strongest at 28 d post vaccination”. The “MHC class I restriction (H-2D^d and H-2L^d)” value in test [12] was “restricted by H-2D^d and H-2L^d molecules”.
